Assay: Half-life of DTT-6-A and hm^6A in aqueous solutions with different pH values
Assay type: physicochemical
Details: aqueous solution, neutral environment
Experimental: In order to study whether the stability of product (DTT-6-A) produced by the reaction of hm^6A and DTT was improved compared with hm^6A, half-life of DTT-6-A in aqueous solutions with different pH values was measured.

half-life: 2 h
SMILES: OCNc1ncnc2c1ncn2[C@@H]1O[C@H](CO)[C@@H](O)[C@H]1O [hm^6A, N^6-hydroxymethyl adenine nucleoside]
